Assay results reported in ChEMBL document CHEMBL3867469, “Discovery of phenoxyindazoles and phenylthioindazoles as RORγ inverse agonists” (Bioorg Med Chem Lett, 2016).

Tests used:
[1] = Photocytotoxicity against human neonatal keratinocytes assessed as decrease in cell viability preincubated for 30 mins followed by 5 J/cm2 UV light irradiation for 15 mins measured after 24 hrs by neutral red dye based assay; assay type: toxicity; settings: neonatal keratinocyte
[2] = target: T1, Nuclear receptor ROR-gamma (Homo sapiens, UniProt P51449)
T1 sequence (P51449 whole entry): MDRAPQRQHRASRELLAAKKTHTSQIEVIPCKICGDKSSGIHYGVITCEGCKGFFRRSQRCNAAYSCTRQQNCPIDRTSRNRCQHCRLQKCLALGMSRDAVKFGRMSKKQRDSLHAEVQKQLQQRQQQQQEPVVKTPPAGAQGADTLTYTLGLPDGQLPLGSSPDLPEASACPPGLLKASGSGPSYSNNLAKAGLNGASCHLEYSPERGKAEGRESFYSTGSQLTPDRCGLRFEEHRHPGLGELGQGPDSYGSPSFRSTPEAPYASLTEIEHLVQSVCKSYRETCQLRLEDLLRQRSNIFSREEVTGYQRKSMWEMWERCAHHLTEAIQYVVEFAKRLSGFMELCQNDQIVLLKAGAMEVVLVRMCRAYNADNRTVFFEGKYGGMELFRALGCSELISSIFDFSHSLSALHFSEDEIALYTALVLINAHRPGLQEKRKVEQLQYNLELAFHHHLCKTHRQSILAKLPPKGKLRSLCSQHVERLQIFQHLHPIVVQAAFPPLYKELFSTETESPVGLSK
Description: Inverse agonist activity at GAL4 DBD-fused RORgammat LBD (unknown origin) expressed in HG5LN cells after 18 hrs by luciferase reporter gene assay

[3] = target: T2, Retinoic acid receptor gamma (Homo sapiens, UniProt P13631)
T2 sequence (P13631 whole entry): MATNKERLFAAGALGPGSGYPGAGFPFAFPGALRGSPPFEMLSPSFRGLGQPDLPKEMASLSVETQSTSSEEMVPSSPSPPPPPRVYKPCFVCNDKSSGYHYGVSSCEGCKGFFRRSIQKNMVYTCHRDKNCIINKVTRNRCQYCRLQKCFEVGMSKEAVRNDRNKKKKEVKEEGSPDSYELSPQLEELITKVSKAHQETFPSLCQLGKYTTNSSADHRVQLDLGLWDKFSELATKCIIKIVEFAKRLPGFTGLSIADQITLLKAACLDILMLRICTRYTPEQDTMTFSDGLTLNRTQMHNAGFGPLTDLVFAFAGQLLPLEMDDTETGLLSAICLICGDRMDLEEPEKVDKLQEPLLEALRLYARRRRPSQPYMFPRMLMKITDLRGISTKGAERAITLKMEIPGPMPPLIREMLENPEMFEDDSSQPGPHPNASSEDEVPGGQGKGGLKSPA
Description: Inverse agonist activity at GAL4 DBD-fused RARgamma LBD (unknown origin) expressed in human HG5LN cells after 18 hrs by luciferase reporter gene assay

[4] = physchem; settings: buffer, pH 6.5
[5] = in vitro; settings: human, neonatal keratinocytes
Description: Photocytotoxicity against human neonatal keratinocytes assessed as decrease in cell viability by measuring ratio of IC50 in presence of UV to IC50 in absence of UV after 30 mins by neutral red dye based assay

| SMILES | Activity [1] | IC50 [2] | IC50 [3] | logD [4] | selectivity ratio at 0.5 h [5] |
| --- | --- | --- | --- | --- | --- |
| O=C(O)c1ccc(-c2nn(C(=O)c3c(Cl)cccc3Cl)c3ccccc23)cc1 | Toxic | 0.06 µM | 1.3 µM | 2.4 |  |
| O=C(O)c1ccc(-n2nc(Oc3c(Cl)cccc3Cl)c3c(F)cccc32)cc1 |  | 0.26 µM | 0.8 µM | 2.8 | > 90 |
| O=C(O)c1ccc(-n2nc(Oc3c(Cl)cccc3Cl)c3cccc(F)c32)cc1 |  | 0.088 µM | 7.6 µM | 2.8 | 30 |
| O=C(O)[C@H]1CC[C@H](n2nc(Oc3c(Cl)cccc3Cl)c3ccccc32)CC1 |  | > 10 µM | > 10 µM | 3.1 | 41 |
| Cc1cc(C(=O)O)ccc1-n1nc(Oc2c(Cl)cccc2Cl)c2ccccc21 |  | 3.6 µM | 6.2 µM | 3 | 41 |
| Cc1cccc2c1c(Oc1c(Cl)cccc1Cl)nn2-c1ccc(C(=O)O)cc1 |  | 0.82 µM | 1.1 µM | 3.6 | 19 |
| O=C(O)c1cc(F)c(-n2nc(Oc3c(Cl)cccc3Cl)c3ccccc32)c(F)c1 |  | 0.31 µM | > 10 µM | 2.9 | 16 |
| O=C(O)[C@H]1CC[C@@H](n2nc(Oc3c(Cl)cccc3Cl)c3ccccc32)CC1 |  | > 10 µM | > 10 µM | 3.4 | 108 |
| O=C(O)c1ccc(-n2nc(Oc3c(Cl)cccc3Cl)c3cccnc32)cc1 |  | 1.2 µM | 3.8 µM | 2.3 | 190 |
| CN(C)C(=O)c1ccc2c(c1)c(S(=O)(=O)c1c(Cl)cccc1Cl)nn2-c1ccc(C(=O)O)cc1 | Toxic | > 10 µM | > 10 µM | 0.9 |  |
| O=C(O)c1ccc(-n2nc(Sc3c(Cl)cccc3Cl)c3ccccc32)cc1 | Toxic | 2.5 µM | 4.4 µM | 2.9 |  |
| O=C(O)c1ccc(-n2nc(Oc3c(Cl)cccc3Cl)c3ccccc32)cn1 |  | > 10 µM | > 10 µM | 3.7 | 30 |
| CS(=O)(=O)c1ccc2c(c1)c(Oc1c(Cl)cccc1Cl)nn2-c1ccc(C(=O)O)cc1 |  | > 10 µM | 4.5 µM | 1.7 | 87 |
| O=C(O)c1ccc(-n2nc(Oc3c(Cl)cccc3Cl)c3ccccc32)c(F)c1 |  | 0.24 µM | > 10 µM | 2.8 | 32 |
| CN(C)C(=O)c1ccc2c(c1)c([S+]([O-])c1c(Cl)cccc1Cl)nn2-c1ccc(C(=O)O)cc1 (stereo not drawn) | Toxic | > 10 µM | > 10 µM | 0.4 |  |
| O=C(O)c1ccc(-n2nc(Oc3c(Cl)cccc3Cl)c3ncccc32)cc1 |  | 2.1 µM | 6.8 µM | 1.3 | 11 |
| CN(C)C(=O)c1ccc2c(c1)c(Sc1c(Cl)cccc1Cl)nn2-c1ccc(C(=O)O)cc1 | Toxic | 0.59 µM | > 10 µM | 1.6 |  |
| O=C(O)c1ccc(-n2nc(Oc3c(Cl)cccc3Cl)c3ccccc32)nc1 |  | 1.1 µM | 1.9 µM | 2.9 | 90 |
| CCc1nn(C)c(CC)c1Oc1nn(-c2ccc(C(=O)O)cc2)c2ccccc12 |  | 4.8 µM | 9.1 µM | 1.6 | 121 |
| N#Cc1ccc2c(c1)c(Oc1c(Cl)cccc1Cl)nn2-c1ccc(C(=O)O)cc1 |  | > 10 µM | 1.4 µM | 2.6 | 138 |
| Clc1cccc(Cl)c1Oc1n[nH]c2ccccc12 |  | > 10 µM | 5.7 µM | 4.9 | 1.6 |
| CN(C)C(=O)c1ccc2c(Oc3c(Cl)cccc3Cl)nn(-c3ccc(C(=O)O)cc3)c2c1 |  | > 10 µM | > 10 µM | 1.8 | 18 |
